84 compounds from a melting point compilation (Tetko et al.; mined from patent text by program, amines drawn as free bases though some values may be those of a salt) can be followed below.

SMILES strings stand for the structures.

Turning to `Cc1ccc(CNc2ncnc3c(N4CCOCC4)nc(N4CCC(N(C)C)CC4)nc23)cc1`, the melting point (as a rule, the temperature, or range, at which the solid turns liquid) was 142 to 144 °C.

Consider `Cc1cc(-n2ccnc2)c2cccc(OCc3c(Cl)ccc(S(=O)(=O)N4C[C@H](O)C[C@H]4C(=O)O)c3Cl)c2n1`, for which the melting point stood at 140 °C.

`O[C@@H](COc1cccc(-c2noc3ccsc23)c1)CN1CCN(c2cccc(Cl)c2)CC1` yielded a melting point of 118 to 120 °C.

On to `COc1cccc(CNC(=O)c2nc3cccc(COCc4ccc(C(=O)O)cc4)c3c(=O)[nH]2)c1`, for which the melting point fell in the range of 230 to 232 °C.

For the compound `COc1ccc(C2CCN(c3c(C)c(C)c4c(c3C)C(c3ccc(C(C)C)cc3)C(C)(C)O4)CC2)cc1OC` (centres undefined), the melting point is 129 to 132 °C.

Consider `CNC(=O)CNC(=O)c1cccc(-c2cccc3oc(Cc4cccc(C(F)(F)F)c4)cc23)c1`, for which the melting point fell in the range of 135 to 139 °C.

In turn, `C=CC[C@@H]1C[C@@H](COc2ccc(-c3ccc(C#N)cc3)cc2)NC1=O` returned a melting point of 99 to 101 °C.

`O=C1Nc2ccc(Cl)cc2C2(c3ccccc3)NCCCN12` (centres undefined): the melting point was in the range of 275 to 276 °C.

On to `N#CC(=CNC1CC1)C(=O)c1cc(F)c(F)c(F)c1F`, for which the melting point lay within 88 to 89 °C.

As to `O=C1N(Cc2cnc(Br)s2)c2ccccc2C12COc1cc3c(cc12)OCO3` (centres undefined), the melting point is 215 to 217 °C.

`COC(=O)[C@@H]1[C@@H](C(=O)O)[C@H]2C=C[C@@H]1C2` had a melting point of 78 to 79 °C.

Consider `CCNCC(=O)Nc1cc(NS(C)(=O)=O)c(Oc2ccccc2)cc1[N+](=O)[O-]`, for which the melting point lay within 156 to 157 °C.

Take `O=C(O)C1=Cc2cc(O)ccc2S(=O)(=O)CC1`: the melting point is 260 to 265 °C.

On to `C=C(Cn1ccnc1)c1ccccc1OCc1ccc(Cl)cc1Cl`, for which the melting point lay in the range of 84 to 86 °C.

In the case of `CCOC(=O)C1=C(C)NC(C)=C(C(=O)OCCN2CCN(C(c3ccc(C)cc3)c3ccc(C)cc3)CC2)C1c1cccc(Cl)c1Cl` (centres undefined), the melting point fell in the range of 85 to 88 °C.

Compound `Cc1ccc(Cn2c(=O)c(-c3ccccc3)c3n(c2=O)CC=CS3)cc1` came in with a melting point of 124 to 125 °C.

`Cc1cc(-c2ccco2)ccc1-c1cc(C(F)(F)F)nn1-c1ccc(S(C)(=O)=O)c(F)c1` came in with a melting point of 77 to 79 °C.

For `O=C(C=CCN1CCN(CC(=O)OCc2ccccc2)CC1)Nc1cc2c(Nc3ccc(F)c(Cl)c3)ncnc2cc1OCC1CC1`, the melting point came to 174 °C.

As to `COc1cccc2c(=O)[nH]nc(C)c12`, the melting point was in the range of 257 to 260 °C.

For the compound `Cc1cn(-c2ccc3nnc4c(C)nc(CC(C)C)n4c3c2)c(CC(C)C)n1`, the melting point lay in the range of 134 to 136 °C.

Regarding `COc1ccc2c(c1)Cc1nnc(OC)n1C=C2`, the melting point was 176 to 177 °C.

In the case of `CCOC(=O)c1cc(C)c(OCCCc2cc(C)no2)c(C)c1`, the melting point was 49 to 50 °C.

`COc1cc(NC(=O)C#Cc2ccc(C(F)(F)F)cc2Cl)ccc1OCCN1CC(C)CC(C)C1` (centres undefined) came in with a melting point of 196 to 201 °C.

The compound `CCC(=S)N(c1c(C)cccc1C)C(C)C(C)=S` (centres undefined) gave a melting point of 88 to 92 °C.

For `CCN=c1[nH]c2ccccc2c2nc(-c3ccco3)nn12`, the melting point was in the range of 133 to 135 °C.

The compound `O=[N+]([O-])c1oc2ccc(Cc3nnn[nH]3)cc2c1-c1ccccc1` gave a melting point of 245 to 247 °C.

Turning to `COc1ccc(C(=O)Nc2ccc3ccc(C)nc3n2)cc1`, the melting point amounted to 119 °C.

The compound `CN(C)c1ccccc1CSC1=NC(=O)NC1(C)C` yielded a melting point of 160 to 162 °C.

`CCC(C)(C)NCC(O)c1ccc(N)c(C#N)c1` (centres undefined) yielded a melting point of 143 °C.

`CC1(C(F)(F)F)C(=O)NC(=O)NC1=O` yielded a melting point of 205 to 206 °C.

In turn, `N=C(N)Nc1nc(CSCCC2=NS(=O)(=O)NC(N)=N2)cs1` displayed a melting point of 175 to 192 °C.

Turning to `O=C(O)c1cn(CCc2ccc(O)cc2)c2cc(C3CC3)nn2c1=O`, the melting point lay in the range of 265 to 270 °C.

`CCCCCCCN(CCCCCSc1ncnc2[nH]ncc12)C(=O)NC(C)C` gave a melting point of 81 to 83 °C.

The compound `CCC(O)c1cc2cc(O)c(Cl)c(Cl)c2s1` (centres undefined) had a melting point of 145 to 146 °C.

For `CCc1ccccc1N(C=C(C#N)C#N)N=C(C#N)C#N`, the melting point lay within 172 to 174 °C.

`Cc1cccc(-c2ccc3c(c2)CC[C@H]2N(C)C(=O)CC[C@]32C)c1C`: the melting point was 133 to 140 °C.

The compound `CS(=O)(=O)c1ncnn1CC(O)(Cc1ccccc1Cl)C1(Cl)CC1` (centres undefined) displayed a melting point of 125 to 128 °C.

On to `FC(F)(F)c1cccc(N2CCC(N=Cc3ccc[nH]3)=N2)c1`, for which the melting point was in the range of 144 to 145 °C.

`CCOC(=O)C1=C(N)N=C(OCC)C(C(=O)O)C1c1ccccc1[N+](=O)[O-]` (centres undefined): the melting point lay within 133 to 134 °C.

The compound `CSC1NC(=O)N(c2ccc(Cl)cc2)C(=O)N1N=C(C)C` (centres undefined) registered a melting point of 142 to 144 °C.

In turn, `CNC(=O)c1cc(OC)c(-c2ccc(C[C@H](NC(=O)c3c(Cl)cccc3Cl)C(=O)O)cc2)c(OC)c1` registered a melting point of 251 to 252 °C.

On to `COc1ccccc1C1(O)C(O)CC(C)(C)C2CN(C(=O)Cc3c[nH]c4ccccc34)CC21` (centres undefined), for which the melting point was in the range of 160 to 165 °C.

The compound `Cc1ccc(S(=O)(=O)OCC2COc3ccc4nocc4c3O2)cc1` (centres undefined) returned a melting point of 109 to 110 °C.

The compound `CC(O)c1ccc(-c2ccc([N+](=O)[O-])cc2)o1` (centres undefined) registered a melting point of 69.5 to 70.5 °C.

`Cc1cc([N+](=O)[O-])ccc1Oc1ccc(C(C)(C)c2cccc(C(C)(C)c3ccc(Oc4ccc([N+](=O)[O-])cc4C)cc3)c2)cc1` registered a melting point of 116 to 118 °C.

Compound `Nc1c(-c2ccccc2)sc2ccccc12` showed a melting point of 110 to 112 °C.

For the compound `CCC(Cl)c1nc2c(C(F)(F)F)cccc2c(=O)o1` (centres undefined), the melting point was 65 to 70 °C.

`O=c1oc2ccccc2cc1CCN1CCC(Nc2nc3ccccc3n2Cc2ccc(F)cc2)CC1` gave a melting point of 168 °C.

`CCOC(=O)c1ccc(CCN(C)CCCC(C#N)(c2ccc(OC)c(OC)c2)C(C)C)cc1` (centres undefined) showed a melting point of 111 to 112 °C.

`COc1ccc(C(=O)N2CCCC(=O)c3ccc(Cl)cc3CCC2=O)cc1` showed a melting point of 143 °C.

Turning to `CCN1C(=O)C(C)(C)C(=O)N(C)c2cc(CN(CCn3ccc4oc(C)cc4c3=O)Cc3ccccc3CO)ccc21`, the melting point fell in the range of 159 to 161 °C.

As for `COc1cc(Nc2c(C#N)cnc3cc(/C=C/C(=O)O)sc23)c(Cl)cc1Cl`, the melting point was over 250 °C.

The compound `O=c1[nH]c2cc(C(F)(F)F)ccc2n1-c1cc(C(F)(F)F)cc([N+](=O)[O-])c1O` came in with a melting point of over 360 °C.

In the case of `CCCCN(c1nc(Cl)nc(N(CCCC)C2CC(C)(C)N(OC3CCCCC3)C(C)(C)C2)n1)C1CC(C)(C)N(OC2CCCCC2)C(C)(C)C1`, the melting point lay within 75 to 82 °C.

Compound `CCOC(=O)CCNC(=S)Nc1ccc2cn[nH]c2c1` yielded a melting point of 145 °C.

The compound `O=[N+]([O-])c1cc(Cl)c(OCC(F)(F)C(F)(F)F)c(Cl)c1F` returned a melting point of 62 to 63 °C.

Turning to `Cc1nc2cc3c(cc2s1)C1(CO3)C(=O)N(Cc2ccccn2)c2ccccc21` (centres undefined), the melting point lay within 249 to 250 °C.

As to `COc1cccc(CC2CCN(C(=O)C(=O)Nc3ccc4[nH]c(=O)oc4c3)CC2)c1`, the melting point lay within 110 to 115 °C.

In turn, `O=C(NC1=NN(c2ccc(Cl)c(Cl)c2)CC1)c1ccc(Cl)cc1` registered a melting point of 177 to 178 °C.

`CCCCS(=O)(=O)N(C(=O)OC(C)(C)C)c1cc(OC[C@@H]2CO2)ccc1OCc1ccccc1`: the melting point lay within 87 to 89 °C.

For `COc1cc([N+](=O)[O-])c2nccc(C)c2c1Oc1ccc(Cl)cc1Cl`, the melting point is 166 to 168 °C.

In turn, `Cc1oc(-c2ccccc2)nc1COc1ccc(CCc2oc(-c3ccccc3)nc2CCC(=O)O)cc1` registered a melting point of 110 to 111 °C.

Take `CCOC(=O)Cc1ccc(NC(=O)C(CCc2ccccc2)NS(=O)(=O)c2ccc(Cl)cc2)cc1` (racemic): the melting point lay within 114 to 115 °C.

In turn, `O=[N+]([O-])c1ccc(Sc2cccc3cnccc23)cc1NCc1ccccc1` gave a melting point of 153 to 154 °C.

`CNc1cc(Cl)cc(NC)c1[N+](=O)[O-]` returned a melting point of 193 °C.

Compound `N#Cc1nc(C#N)c(C#N)nc1C#N` showed a melting point of 274 to 276 °C.

The compound `CC(C)c1c(O)ccc2c1oc1ccc(C#N)cc12` returned a melting point of 180 to 182 °C.

In turn, `COc1ccccc1-c1ccc2ccc(N)nc2n1` registered a melting point of 182 °C.

As for `Cc1nc(N2CCN(Cc3ccccc3)C2=O)sc1C(=O)NCc1ccc(F)cc1F`, the melting point was in the range of 157 to 158 °C.

Take `CCOC(=O)C(C)(C)Oc1cccc(Cc2ccc(C(F)(F)F)cc2)c1`: the melting point worked out at 50 °C.

Turning to `CCCCCCCCCCCCNC1=NS(=O)(=O)N=C1NCCSCc1ccc(CN(C)C)o1`, the melting point fell in the range of 136 to 139 °C.

`O=Cc1cn(C2CCCCC2)nc1-c1ccc([N+](=O)[O-])o1` yielded a melting point of 150 to 151 °C.

Consider `O=C1NC(=O)C(=Cc2ccc(OCCN(Cc3ccccc3)c3nc4ccccc4s3)cc2)S1`, for which the melting point fell in the range of 185 to 188 °C.

Turning to `COC(=O)c1ccc(C(=O)c2ccccc2)cc1`, the melting point lay in the range of 133 to 135 °C.

Compound `COCCCn1nnnc1-c1cc(-c2cccc(C(=O)O)c2)c(OCc2ccccc2)cc1OCc1ccccc1` came in with a melting point of 59 to 63 °C.

The compound `COC1CN(CCCNc2ncccn2)CCC1NC(=O)C1=CC(Cl)(OC)C(N)C=C1` (centres undefined) came in with a melting point of 158 °C.

`COc1ccc2cc(-c3ccncn3)ccc2n1` had a melting point of 164 to 165 °C.

With `COc1cccc(OC)c1C(=O)P(=O)(c1ccccc1)c1ccccc1`, the melting point is 124 to 126 °C.

`CCc1ccc(NC(=O)NCc2ccc3c(c2)CN(C2CCC(=O)NC2=O)C3=O)cc1` (centres undefined) gave a melting point of 263 to 265 °C.

In the case of `CC(=O)c1ccn2c(C)c(C)nc2c1N`, the melting point fell in the range of 195 to 197 °C.

`CN1CCN(C2CC(=O)c3ccc(F)cc32)CC1` (centres undefined) registered a melting point of 102 to 103 °C.

On to `CC(C)OC(=O)OCOC(=O)[C@H]1[C@@H]2CC[C@@](N)(C(=O)O)[C@@H]21`, for which the melting point lay in the range of 196 to 197 °C.

The compound `O=c1ccccn1[C@@H]1c2cc(C(F)(F)C(F)(F)C(F)(F)F)ccc2OC(CF)(CF)[C@H]1O` (relative stereo) registered a melting point of 111 to 113 °C.

`CC1Cc2cc(NS(C)(=O)=O)ccc2OC12CCC(N1CCc3ccccc3C1)CC2` (centres undefined): the melting point is 135 °C.
